In PubChem BioAssay (NCI):
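Method: 48-hour compound exposure of cells in 96-well plates, five concentrations, linear interpolation of endpoints. GI50 marks 50% less growth. Definition used: TGI = concentration required for complete inhibition of growth.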

Assays:
Assay in all cases: DTP human tumour cell line panel, 48 h
OVCAR-4 ovarian = test system: OVCAR-4 ovarian
SNB-19 CNS = test system: SNB-19 CNS
RXF 393 renal = test system: RXF 393 renal
RPMI-8226 leukemia = test system: RPMI-8226 leukemia
OVCAR-3 ovarian = test system: OVCAR-3 ovarian
MOLT-4 leukemia = test system: MOLT-4 leukemia
OVCAR-8 ovarian = test system: OVCAR-8 ovarian
SF-295 CNS = test system: SF-295 CNS
MDA-MB-231 breast = test system: MDA-MB-231 breast
HS 578T breast = test system: HS 578T breast
NCI-H522 lung = test system: NCI-H522 lung
TK-10 renal = test system: TK-10 renal
M14 melanoma = test system: M14 melanoma
SR leukemia = test system: SR leukemia
SK-MEL-28 melanoma = test system: SK-MEL-28 melanoma
MALME-3M melanoma = test system: MALME-3M melanoma
DU-145 prostate = test system: DU-145 prostate
A498 renal = test system: A498 renal
BT-549 breast = test system: BT-549 breast
HCC-2998 colon = test system: HCC-2998 colon
OVCAR-5 ovarian = test system: OVCAR-5 ovarian
UACC-257 melanoma = test system: UACC-257 melanoma
CCRF-CEM leukemia = test system: CCRF-CEM leukemia
CAKI-1 renal = test system: CAKI-1 renal
SK-MEL-2 melanoma = test system: SK-MEL-2 melanoma
UO-31 renal = test system: UO-31 renal
HT29 colon = test system: HT29 colon
COLO 205 colon = test system: COLO 205 colon
HOP-62 NSCLC = test system: HOP-62 NSCLC
NCI/ADR-RES ovarian = test system: NCI/ADR-RES ovarian
A549 NSCLC = test system: A549 NSCLC
ACHN renal = test system: ACHN renal
SK-MEL-5 melanoma = test system: SK-MEL-5 melanoma
SK-OV-3 ovarian = test system: SK-OV-3 ovarian
EKVX NSCLC = test system: EKVX NSCLC
KM12 colon = test system: KM12 colon
HCT-15 colon = test system: HCT-15 colon
HCT-116 colon = test system: HCT-116 colon
786-0 renal = test system: 786-0 renal
SNB-75 CNS = test system: SNB-75 CNS
MDA-MB-435 = test system: MDA-MB-435
HL-60(TB) leukemia = test system: HL-60(TB) leukemia
HOP-92 NSCLC = test system: HOP-92 NSCLC
UACC-62 melanoma = test system: UACC-62 melanoma
SF-539 CNS = test system: SF-539 CNS
PC-3 prostate = test system: PC-3 prostate
U251 CNS = test system: U251 CNS
NCI-H460 lung = test system: NCI-H460 lung
SN12C renal = test system: SN12C renal
K-562 leukemia = test system: K-562 leukemia
MCF7 breast = test system: MCF7 breast
SW-620 colon = test system: SW-620 colon
T-47D breast = test system: T-47D breast
SF-268 CNS = test system: SF-268 CNS

COc1cnc2c(c1)C(=O)c1c-2n(CCCN2CCNCC2)c(=O)c2cc([N+](=O)[O-])ccc12
GI50 (OVCAR-4 ovarian): 1240 nM
TGI (OVCAR-4 ovarian): 3.01 µM
GI50 (SNB-19 CNS): 210 nM
TGI (SNB-19 CNS): 2.1 µM
GI50 (RXF 393 renal): 401 nM
TGI (RXF 393 renal): 1940 nM
GI50 (RPMI-8226 leukemia): 301 nM
TGI (RPMI-8226 leukemia): 2280 nM
GI50 (OVCAR-3 ovarian): 1190 nM
TGI (OVCAR-3 ovarian): 2.63 µM
GI50 (MOLT-4 leukemia): 36.5 nM
TGI (MOLT-4 leukemia): 1050 nM
GI50 (OVCAR-8 ovarian): 314 nM
TGI (OVCAR-8 ovarian): 2290 nM
GI50 (SF-295 CNS): 126 nM
TGI (SF-295 CNS): 1070 nM
GI50 (MDA-MB-231 breast): 1470 nM
TGI (MDA-MB-231 breast): 3.33 µM
GI50 (HS 578T breast): 1820 nM
TGI (HS 578T breast): 4.6 µM
GI50 (NCI-H522 lung): 506 nM
TGI (NCI-H522 lung): 2030 nM
GI50 (TK-10 renal): 1110 nM
TGI (TK-10 renal): 2.39 µM
GI50 (M14 melanoma): 279 nM
TGI (M14 melanoma): 1490 nM
GI50 (SR leukemia): 42.4 nM
TGI (SR leukemia): 1.9 µM
GI50 (SK-MEL-28 melanoma): 1420 nM
TGI (SK-MEL-28 melanoma): 3.12 µM
GI50 (MALME-3M melanoma): 655 nM
TGI (MALME-3M melanoma): 2240 nM
GI50 (DU-145 prostate): 278 nM
TGI (DU-145 prostate): 1230 nM
GI50 (A498 renal): 86.3 nM
TGI (A498 renal): 2190 nM
GI50 (BT-549 breast): 1400 nM
TGI (BT-549 breast): 9.7 µM
GI50 (HCC-2998 colon): 1110 nM
TGI (HCC-2998 colon): 2360 nM
GI50 (OVCAR-5 ovarian): 1020 nM
TGI (OVCAR-5 ovarian): 2580 nM
GI50 (UACC-257 melanoma): 3.49 µM
TGI (UACC-257 melanoma): 24.1 µM
GI50 (CCRF-CEM leukemia): 143 nM
TGI (CCRF-CEM leukemia): 1.78 µM
GI50 (CAKI-1 renal): 202 nM
TGI (CAKI-1 renal): 1.71 µM
GI50 (SK-MEL-2 melanoma): 2070 nM
TGI (SK-MEL-2 melanoma): 3.95 µM
GI50 (UO-31 renal): 249 nM
TGI (UO-31 renal): 1.7 µM
GI50 (HT29 colon): 210 nM
TGI (HT29 colon): 1530 nM
GI50 (COLO 205 colon): 61.7 nM
TGI (COLO 205 colon): 1790 nM
GI50 (HOP-62 NSCLC): 65 nM
TGI (HOP-62 NSCLC): 0.572 µM
GI50 (NCI/ADR-RES ovarian): 1110 nM
TGI (NCI/ADR-RES ovarian): 2.8 µM
GI50 (A549 NSCLC): 69.9 nM
TGI (A549 NSCLC): 1500 nM
GI50 (ACHN renal): 117 nM
TGI (ACHN renal): 1220 nM
GI50 (SK-MEL-5 melanoma): 403 nM
TGI (SK-MEL-5 melanoma): 1620 nM
GI50 (SK-OV-3 ovarian): 239 nM
TGI (SK-OV-3 ovarian): 0.771 µM
GI50 (EKVX NSCLC): 1290 nM
TGI (EKVX NSCLC): 2690 nM
GI50 (KM12 colon): 380 nM
TGI (KM12 colon): 1770 nM
GI50 (HCT-15 colon): 194 nM
TGI (HCT-15 colon): 1540 nM
GI50 (HCT-116 colon): 96 nM
TGI (HCT-116 colon): 1780 nM
GI50 (786-0 renal): 209 nM
TGI (786-0 renal): 1160 nM
GI50 (SNB-75 CNS): 429 nM
TGI (SNB-75 CNS): 1970 nM
GI50 (MDA-MB-435): 1250 nM
TGI (MDA-MB-435): 2680 nM
GI50 (HL-60(TB) leukemia): 113 nM
TGI (HL-60(TB) leukemia): 1.11 µM
GI50 (HOP-92 NSCLC): 1250 nM
TGI (HOP-92 NSCLC): 9.91 µM
GI50 (UACC-62 melanoma): 176 nM
TGI (UACC-62 melanoma): 1570 nM
GI50 (SF-539 CNS): 354 nM
TGI (SF-539 CNS): 1470 nM
GI50 (PC-3 prostate): 1170 nM
TGI (PC-3 prostate): 2.56 µM
GI50 (U251 CNS): 167 nM
TGI (U251 CNS): 1160 nM

CC(C)CCCC(C)[C@H]1CC[C@H]2N=C(NCc3ccccc3)CCC[C@]12C (some centres undefined)
TGI (OVCAR-4 ovarian): 8.75 µM
TGI (SNB-19 CNS): 8.75 µM
TGI (RXF 393 renal): 3140 nM
TGI (NCI-H460 lung): 3.34 µM
TGI (OVCAR-3 ovarian): 5.33 µM
TGI (SF-295 CNS): 3620 nM
TGI (SN12C renal): 3.62 µM
TGI (HS 578T breast): 9.48 µM
TGI (K-562 leukemia): 3.23 µM
TGI (TK-10 renal): 5.45 µM
TGI (SR leukemia): 7.84 µM
TGI (SK-MEL-28 melanoma): 2.96 µM
TGI (A498 renal): 4770 nM
TGI (MCF7 breast): 3.29 µM
TGI (BT-549 breast): 8.19 µM
TGI (UACC-257 melanoma): 5.24 µM
TGI (CCRF-CEM leukemia): 5.42 µM
TGI (CAKI-1 renal): 5.65 µM
TGI (SW-620 colon): 4.45 µM
TGI (UO-31 renal): 8.29 µM
TGI (HT29 colon): 3170 nM
TGI (COLO 205 colon): 2770 nM
TGI (HOP-62 NSCLC): 8.56 µM
TGI (NCI/ADR-RES ovarian): 3.15 µM
TGI (T-47D breast): 8.01 µM
TGI (SK-MEL-5 melanoma): 3060 nM
TGI (SK-OV-3 ovarian): 20.1 µM
TGI (SF-268 CNS): 8.92 µM
TGI (HCT-116 colon): > 100000 nM
TGI (SNB-75 CNS): 3520 nM
TGI (HL-60(TB) leukemia): 7.63 µM
TGI (HOP-92 NSCLC): 5.67 µM
TGI (UACC-62 melanoma): 3480 nM
TGI (PC-3 prostate): 4.93 µM

C=C(C)[C@@H]1CC[C@]2(C(=O)OCCOCCOCC[P+](c3ccccc3)(c3ccccc3)c3ccccc3)CC[C@]3(C)[C@H](CC[C@@H]4[C@@]5(C)CC[C@H](OC(=O)C(Cl)Cl)C(C)(C)[C@@H]5CC[C@]43C)[C@@H]12
GI50 (HS 578T breast): 317 nM
TGI (HS 578T breast): 1.88 µM
GI50 (A498 renal): 225 nM
TGI (A498 renal): 734 nM
GI50 (NCI/ADR-RES ovarian): 1540 nM
TGI (NCI/ADR-RES ovarian): 9 µM
